Reference: US20060276485A1, “Substituted piperidine and piperazine derivatives as melanocortin-4 receptor modulators” (priority 2003, published 2006)
Entries after “also recorded” stand apart in the source; their conditions may differ. Where two headings read alike, the source gives them in different places.

Columns and labels:
[1] = molecular target: T1, human melanocortin-4 receptor (hMC4-R) (Homo sapiens, UniProt P32245); assay: Membrane binding assay: competition with fluorescence labeled NDP-alpha-MSH, fluorescence polarization
T1 construct: expressed in transfected cells; host or cells: HEK293 cells
Protocol: A membrane binding assay is used to identify competitive inhibitors of fluorescence labeled NDP-alpha-MSH binding to HEK293 cell membrane preparations expressing human melanocortin receptors.
The test compound or unlabeled NDP-alpha-MSH is dispensed at varying concentrations to a 384 well microtiter plate. Fluorescence labeled NDP-alpha-MSH is dispensed at a single concentration, followed by addition of membrane preparations. The plate is incubated for 5 h at room temperature.
The degree of fluorescence polarization is determined with a fluorescence polarization microplate reader.

[2] = molecular target: T1, human melanocortin-4 receptor (hMC4-R); assay: Functional cellular cAMP assay in HEK293 cells, fluorescence polarization; format: cell-based
Protocol: A functional cellular assay, based on competition between unlabeled CAMP and a fixed quantity of fluorescence labeled CAMP for a limited number of binding sites on a CAMP specific antibody, is used to discriminate melanocortin receptor agonists from antagonists by fluorescence polarization.
HEK293 cells expressing one of the human melanocortin receptors are transferred to 384 well microtiter plates, an appropriate amount of CAMP antibody is added, followed by the addition of different concentrations of the test compound to effect cAMP production. Cells are lysed and a fluorescence labeled cAMP conjugate is dispensed. The plate is read on a fluorescence polarization microplate reader and the amount of cAMP produced as a response to a test compound is compared to the production of CAMP resulting from stimulation with NDP-alpha-MSH. […]

[3] = Spontaneous feeding paradigm: food intake in rats; format: in vivo, male Wistar rats; conditions: for increase in cumulative food intake: compared to vehicle; for activity in the spontaneous feeding paradigm: significant increase in food intake at dose of 3 to 30 mg/kg p.o.
Protocol: Food intake in rats is measured after i.p. or p.o. administration of the test compound (see e.g. Chen, A. S. et al. Transgenic Res 2000 April 9(2):145-54).
Selected Examples of the present invention were active in the rat model at 3, 10 or 30 mg/kg after i.p. and p.o. administration of the test compound, respectively, using male Wistar rats (n=4).

melanocortin-4 receptor [4] = molecular target: T2, melanocortin-4 receptor (Homo sapiens, UniProt P32245); conditions: cited from earlier work; for EC50: read-out: melanocortin-4 receptor activation EC50
melanocortin-4 receptor [5] = molecular target: T2, melanocortin-4 receptor; conditions: J. Med. Chem. 2004, 47, 744-755; read-out: melanocortin-4 receptor binding Ki; cited from earlier work
[6] = Bioorg. Med. Chem. Lett. 2003, 13, 3793-3796

T1 sequence (P32245 whole entry): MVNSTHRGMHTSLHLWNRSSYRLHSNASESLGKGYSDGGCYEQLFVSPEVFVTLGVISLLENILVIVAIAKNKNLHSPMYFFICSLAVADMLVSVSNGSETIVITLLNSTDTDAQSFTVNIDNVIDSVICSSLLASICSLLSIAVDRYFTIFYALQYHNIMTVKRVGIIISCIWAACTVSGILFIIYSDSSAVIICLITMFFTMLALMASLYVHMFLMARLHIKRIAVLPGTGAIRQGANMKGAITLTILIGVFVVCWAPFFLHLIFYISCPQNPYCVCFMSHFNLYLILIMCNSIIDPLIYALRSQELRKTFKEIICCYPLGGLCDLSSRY
T2 sequence (P32245 whole entry): as above

Compound | IC50 [1] [nM] | % activation functional assay ([2]; relative to NDP-alpha-MSH) | other results
O=C(N[C@H](Cc1ccc2ccccc2c1)C(=O)N1CCC(c2ccccc2CN2CCCC2=O)CC1)c1cc(=O)c2ccccc2o1 [Example 91] | 120 | does not activate; also recorded: no activation | 
O=C(N[C@H](Cc1ccc(Cl)cc1)C(=O)N1CCN(c2ccccc2CN2CCCC2=O)CC1)c1cc(=O)c2ccccc2o1 [Example 182] | 61 |  | increase in cumulative food intake ([3]; 3 mg/kg p.o., 2 hours following administration): 273%; increase in cumulative food intake ([3]; 3 mg/kg p.o., 4 hours following administration): 204%; increase in cumulative food intake ([3]; 3 mg/kg p.o., 6 hours following administration): 156%; increase in cumulative food intake ([3]; 3 mg/kg p.o., 7 hours following administration): 197%; activity in the spontaneous feeding paradigm [3]: active; % activation functional assay ([2]; at 10 μM): 15%@10 μM; % activation functional assay ([2]; at 10 μM, listed as example 182): little or no activation
O=C(N[C@@H](Cc1ccc(Cl)cc1)C(=O)N1CCN(c2ccccc2CN2CCCC2=O)CC1)c1cc(=O)c2ccccc2o1 [Example 181] | 770 | does not activate; also recorded: no activation | 
O=C(N[C@H](Cc1ccc(Cl)cc1)C(=O)N1CCC(c2ccccc2CN2CCCCC2=O)CC1)c1cc(=O)c2ccccc2o1 [Example 93] | 51 | does not activate; also recorded: no activation | 
O=C(N[C@H](Cc1ccc2ccccc2c1)C(=O)N1CCN(c2ccccc2CN2CCCC2=O)CC1)c1cc(=O)c2ccccc2o1 [Example 267] | 100 | does not activate; also recorded: no activation | 
O=C(N[C@@H](Cc1ccc(Cl)cc1)C(=O)N1CCC(c2ccccc2CN2CCCCC2=O)CC1)c1cc(=O)c2ccccc2o1 [Example 92] | 200 | does not activate; also recorded: no activation | 
CS(=O)(=O)Nc1ccccc1N1CCN(C(=O)[C@@H](Cc2ccc(Cl)cc2)NC(=O)[C@H]2Cc3ccccc3CN2)CC1 [WO03009850 (example 1)] | 500 | 96% | stimulation of melanocortin-4 receptor (melanocortin-4 receptor [4]; [6]): 100%; EC50 (melanocortin-4 receptor [4]; [6]): 380 nM; EC50 (melanocortin-4 receptor [4]; J. Med. Chem. 2004, 47, 744-755): 16 nM; Ki (melanocortin-4 receptor [5]): 220 nM; EC50 [2]: 3700 nM
COc1ccc2oc(C(=O)N[C@@H](Cc3ccc(Cl)cc3)C(=O)N3CCC(c4ccccc4CN4CCCC4=O)CC3)cc(=O)c2c1 [Example 17] |  |  | increase in cumulative food intake ([3]; 10 mg/kg p.o., 2 hours following administration): 3100%; increase in cumulative food intake ([3]; 10 mg/kg p.o., 4 hours following administration): 540%; activity in the spontaneous feeding paradigm [3]: active
O=C(N[C@@H](Cc1ccc(Cl)cc1)C(=O)N1CCC(c2ccccc2CN2CCCC2=O)CC1)c1cc(=O)c2ccccc2o1 [Example 1] | 200 | does not activate; also recorded: no activation | increase in cumulative food intake ([3]; 30 mg/kg p.o., 4 hours following administration): 159%; increase in cumulative food intake ([3]; 30 mg/kg p.o., 6 hours following administration): 131%; increase in cumulative food intake ([3]; 30 mg/kg p.o., 7 hours following administration): 148%; activity in the spontaneous feeding paradigm [3]: active
O=C(N[C@H](Cc1ccc(Cl)cc1)C(=O)N1CCC(c2ccccc2CN2CCCCCC2=O)CC1)c1cc(=O)c2ccccc2o1 [Example 180] | 47 | does not activate; also recorded: no activation | 
O=C(N[C@H](Cc1ccc(Cl)cc1)C(=O)N1CCC(c2ccccc2CN2CCCC2=O)CC1)c1cc(=O)c2ccccc2o1 [example 2] | 36 | 43% | EC50 [2]: 5700 nM
O=C(N[C@H](Cc1ccc(Cl)cc1)C(=O)N1CCC(c2ccccc2CN2CCC2=O)CC1)c1cc(=O)c2ccccc2o1 [Example 178] | 200 | does not activate; also recorded: no activation | 
O=C(N[C@@H](Cc1ccc(Cl)cc1)C(=O)N1CCC(c2ccccc2CN2CCCCCC2=O)CC1)c1cc(=O)c2ccccc2o1 [Example 179] | 500 | does not activate; also recorded: no activation | 
